US20090291945A1, “CYSTEINE PROTEASE INHIBITORS” (Teijin Pharma Limited, priority 2008, published 2009)

Experiments:
[1] = Metabolic stability test using human liver microsome; assay type: in vitro ADME; conditions: NADPH, 37° C., 25 minutes versus 0 minute, LC/MS peak area
Description: For the compounds synthesized according to the method of the above Examples and the compounds of formula (B) (the compounds disclosed in WO2002/070517), the metabolic stability test using the human liver microsome was performed and the residual rate of each compound was calculated.
To a human liver microsome solution (950 μL) was added a test compound solution (10 μL, 100 μM, acetonitrile solution) on an ice bath and the solution was divided into two equal parts, solution A and solution B. Note that the composition of the human liver microsome solution was as follows.
20 mg/mL protein human liver microsome (Xenotech LLC Lenexa, US): 10 μL 500 mM potassium phosphate buffer solution (pH 7.4): 200 μL 10 mM EDTA solution: 100 μL 60 mM MgCl2 solution: 50 μL 100 mM glucose-6-phosphate solution: 50 μL 100 I.U./mL glucose-6-phosphate dehydrogenase solution: 10 μL purified water: 530 μL
To the solution A (480 μL) was added acetonitrile (500 μL) on an ice bath, and then 25 mM NADPH solution (20 μL) was added. After vortexing, the mixture was centrifuged (3,000 rpm) at 4° C. for 10 minutes, and the supernatant was taken as the sample at the reaction time of 0 minute.
To the solution B (480 μL) was added 25 mM NADPH solution (20 μL). The mixture was incubated at 37° C. for 25 minutes. The reaction was quenched with acetonitrile (500 μL) and vortexing. The mixture was centrifuged (3,000 rpm) at 4° C. for 10 minutes, and the supernatant was taken as the sample at the reaction time of 25 minutes.
LC/MS measurement was performed for the samples at the reaction time of 0 minute and the reaction time of 25 minutes. Based on the peak area of the target molecular weight in the MS measurement, the residual rate of the sample at the reaction time of 25 minutes to the sample at the reaction time of 0 minute was calculated in percentage.

[2] = target: T1, cathepsin K (Homo sapiens, UniProt P43235); experiment: Cathepsin K inhibitory activity (fluorescent substrate Z-Leu-Arg-MCA); assay type: biochemical; conditions: enzyme expressed in HEK293T, 15 min preincubation, 30 min reaction at room temperature, pH 5.5; for IC50: read-out: Activity Intensity (cathepsin K inhibitory activity, pIC50 class) (converted)
T1 construct: the active enzyme was obtained as the enzyme fraction by using detergent containing lysis buffer; made in house; host or cells: HEK293T (GenHunter Corporation), transient expression; detergent lysate used as enzyme fraction
T1 sequence (P43235 115-329): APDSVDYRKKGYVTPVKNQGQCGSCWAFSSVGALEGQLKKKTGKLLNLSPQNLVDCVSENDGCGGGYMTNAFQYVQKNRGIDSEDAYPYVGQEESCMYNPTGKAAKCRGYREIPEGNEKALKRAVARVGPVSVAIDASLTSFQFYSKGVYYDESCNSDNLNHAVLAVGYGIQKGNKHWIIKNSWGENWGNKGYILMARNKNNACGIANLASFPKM
Summary of the method: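 Enzyme was HEK293T-expressed cathepsin K in pH 5.5 acetate buffer with 2 mM DTT, preincubated 15 min at room temperature with compound. Reaction started with Z-Leu-Arg-MCA (solution prepared at 10 μM), run 30 min, and AMC fluorescence read at 355/460 nm. IC50 taken from the curve of % inhibition vs DMSO.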

| SMILES | Residual Rate at 25 minutes (%) [1] [%] | IC50 [2] [nM] | Activity Intensity (cathepsin K inhibitory activity, pIC50 class) [2] |
| --- | --- | --- | --- |
| CC[C@@H](CNc1ccc(N2CCC(C(=O)O)CC2)cc1)NC(=O)[C@H](CC(C)C)N[C@@H](c1ccccc1)C(F)(F)F [Compound 145] | 88 | ≤ 3.16 | – |
| CC(C)(F)C[C@H](N[C@@H](c1ccccc1)C(F)(F)F)C(=O)N[C@@H](CCCC(=O)O)CNc1ccc(N2CCOCC2)cc1 [Compound 160, (5S)-5-{(2S)-2-[((1S)-2,2,2-trifluoro-1-phenylethyl)amino]-4-fluoro-4-methylpentanoylamino}-6-[(4-morpholin-4-ylphenyl)amino]hexanoic acid] | 90 | ≤ 3.16 | – |
| CC[C@@H](CNc1ccc(-c2ccccc2)cc1)NC(=O)[C@H](CC(C)C)N[C@@H](c1ccc(OC)nc1)C(F)(F)F [Compound 46] | 65 | 31.6 to 10000 | – |
| CC[C@@H](CNc1ccc(N2CCC(C(=O)O)CC2)cc1)NC(=O)[C@H](CC(C)C)N[C@@H](Cc1ccccc1)C(F)(F)F [Compound 153] | 53 | 3.16 to 31.6 | – |
| CC[C@@H](CNc1ccc(OC(F)(F)C(=O)O)cc1OC)NC(=O)[C@H](CC(C)(C)F)N[C@@H](c1ccccc1)C(F)(F)F [Compound 141] | 70 | 31.6 to 10000 | – |
| CC[C@@H](CNc1ccc(OCCCC(=O)O)cc1OC)NC(=O)[C@H](CC(C)C)N[C@@H](c1ccccc1)C(F)(F)F [Compound 155] | 31 | ≤ 3.16 | – |
| CC[C@@H](CNc1ccc(OC(C)(C)C(=O)O)cc1OC)NC(=O)[C@H](CC(C)(C)F)N[C@@H](c1ccccc1)C(F)(F)F [Compound 131, 2-{4-[((2S)-2-{(2S)-2-[((1S)-2,2,2-trifluoro-1-phenylethyl)amino]-4-fluoro-4-methylpentanoylamino}butyl)amino]-3-methoxyphenoxy}-2-methylpropanoic acid] | 123 | 3.16 to 31.6 | – |
| CC(C)C[C@H](N[C@@H](c1ccccc1)C(F)(F)F)C(=O)N[C@@H](CCCCN)CNc1ccc(N2CCOCC2)cc1 [Compound 126] | 90 | ≤ 3.16 | – |
| CC(C)C[C@H](N[C@@H](c1ccccc1)C(F)(F)F)C(=O)N[C@@H](CCCC(=O)O)CNc1ccc(N2CCOCC2)cc1 [Compound 159, (5S)-5-{(2S)-2-[((1S)-2,2,2-trifluoro-1-phenylethyl)amino]-4-methylpentanoylamino}-6-[(4-morpholin-4-ylphenyl)amino]hexanoic acid] | 100 | ≤ 3.16 | – |
| CC(C)C[C@H](N[C@@H](c1ccccc1)C(F)(F)F)C(=O)N[C@@H](CCCN)CNc1ccc(N2CCOCC2)cc1 [Compound 127] | 87 | 3.16 to 31.6 | – |
| CC[C@@H](CNc1ccc(OC(C)C(=O)O)cc1OC)NC(=O)[C@H](CC(C)(C)F)N[C@@H](c1ccccc1)C(F)(F)F (stereo partly shown) [Compound 142] | 96 | – | ++ (7.5≦pIC50<8.5: ++) |
| CC[C@@H](CNc1ccc(N2CCC[C@H](C(=O)O)C2)cc1)NC(=O)[C@H](CC(C)(C)F)N[C@@H](c1ccccc1)C(F)(F)F [Compound 151] | 90 | ≤ 3.16 | – |
| CC(C)C[C@H](N[C@@H](c1ccccc1)C(F)(F)F)C(=O)N[C@@H](CC#N)CNc1ccc(N2CCOCC2)cc1 [Compound 93] | 63 | 3.16 to 31.6 | – |
| CC[C@@H](CNc1ccc(OC(C)C(=O)O)cc1OC)NC(=O)[C@H](CC(C)(C)F)N[C@@H](c1ccccc1)C(F)(F)F (stereo partly drawn) [Compound 140, 2-{4-[((2S)-2-{(2S)-2-[((1S)-2,2,2-trifluoro-1-phenylethyl)amino]-4-fluoro-4-methylpentanoylamino}butyl)amino]-3-methoxyphenoxy}propanoic acid] | 101 | 3.16 to 31.6 | – |
| CC[C@@H](CNc1ccc(N2CCC[C@H](C(=O)O)C2)cc1)NC(=O)[C@H](CC(C)C)N[C@@H](c1ccccc1)C(F)(F)F [Compound 148] | 85 | ≤ 3.16 | – |
| CC[C@@H](CNc1ccc(N2CCC[C@@H](C(=O)O)C2)cc1)NC(=O)[C@H](CC(C)C)N[C@@H](c1ccccc1)C(F)(F)F [Compound 149] | 87 | ≤ 3.16 | – |
| CC(C)C[C@H](N[C@@H](c1ccccc1)C(F)(F)F)C(=O)N[C@@H](CCN)CNc1ccc(N2CCOCC2)cc1 [Compound 129] | 75 | 3.16 to 31.6 | – |
| CC[C@@H](CNc1ccc(OC2(C(=O)O)CC2)cc1OC)NC(=O)[C@H](CC(C)C)N[C@@H](Cc1ccccc1)C(F)(F)F [Compound 124] | 87 | 3.16 to 31.6 | – |
| CC(C)(F)C[C@H](N[C@@H](c1ccccc1)C(F)(F)F)C(=O)N[C@@H](CCN)CNc1ccc(N2CCOCC2)cc1 [Compound 130] | 85 | 3.16 to 31.6 | – |
| CC[C@@H](CNc1ccc(OC2(C(=O)O)CC2)cc1OC)NC(=O)[C@H](CC(C)(C)F)N[C@@H](c1ccccc1)C(F)(F)F [Compound 118] | 76 | ≤ 3.16 | – |
| CC[C@@H](CNc1ccc(N2CCO[C@@H](C(=O)O)C2)cc1)NC(=O)[C@H](CC(C)C)N[C@@H](c1ccccc1)C(F)(F)F [Compound 150] | 96 | ≤ 3.16 | – |
| CN(C)C[C@@H](CNc1ccc(N2CCOCC2)cc1)NC(=O)[C@H](CC(C)(C)F)N[C@@H](c1ccccc1)C(F)(F)F [Compound 107] | 50 | ≤ 3.16 | – |
| CC[C@@H](CNc1ccc(OC)cc1OC)NC(=O)[C@H](CC(C)(C)F)N[C@@H](c1ccc(-c2ccc(S(C)(=O)=O)cc2)cc1)C(F)(F)F [Compound 5, (2S)—N-((1S)-1-{[(2,4-dimethoxyphenyl)amino]methyl}propyl)-2-[((1S)-2,2,2-trifluoro-1-{4-[4-(methylsulfonyl)phenyl]phenyl}ethyl)amino]-4-fluoro-4-methylpentanamide] | 0 | ≤ 3.16 | – |
| CC[C@@H](CNc1ccc(N2CCC(C(=O)O)CC2)cc1)NC(=O)[C@H](CC(C)(C)F)N[C@@H](c1ccccc1)C(F)(F)F [Compound 147] | 80 | ≤ 3.16 | – |
| CC[C@@H](CNc1ccc(N2CCOCC2)cc1)NC(=O)[C@H](CC(C)C)N[C@@H](c1ccc(=O)n(C)c1)C(F)(F)F [Compound 43] | 46 | ≤ 3.16 | – |
| CC[C@@H](CNc1ccc(OCC(=O)O)cc1OC)NC(=O)[C@H](CC(C)C)N[C@@H](c1ccc(OC)nc1)C(F)(F)F [Compound 120] | 108 | ≤ 3.16 | – |
| CC(C)C[C@H](N[C@@H](c1ccccc1)C(F)(F)F)C(=O)N[C@@H](CCCNC(=N)N)CNc1ccc(N2CCOCC2)cc1 [Compound 101] | 67 | ≤ 3.16 | – |
| CC[C@@H](CNc1ccc(OC)cc1OC)NC(=O)[C@H](CC(C)(C)F)N[C@@H](c1ccccc1)C(F)(F)F [Compound 7, (2S)—N-((1S)-1-{[(2,4-dimethoxyphenyl)amino]methyl}propyl)-2-[((1S)-2,2,2-trifluoro-1-phenylethyl)amino]-4-fluoro-4-methylpentanamide] | 0 | ≤ 3.16 | – |
| CC[C@@H](CNc1ccc(N2CCOCC2)cc1)NC(=O)[C@H](CC(C)C)N[C@@H](c1ccc(=O)[nH]c1)C(F)(F)F [Compound 31] | 77 | ≤ 3.16 | – |
